From ChEMBL document CHEMBL1127122, “Neurotensin receptor binding and antinociceptive activity for lipophilic N-amido neurotensin(913) analogs” (Bioorg Med Chem Lett, 1993)
Residues, ends and D or L forms follow the SMILES beside them. *: point of attachment. X1 = O=C(C(F)(F)C(F)(F)C(F)(F)C(F)(F)C(F)(F)C(F)(F)C(F)(F)F)*; Benzoyl(4-Ph) = O=C(c1ccc(-c2ccccc2)cc1)*; Benzoyl(4-tBu) = CC(C)(C)c1ccc(C(=O)*)cc1; Butanoyl(3,3-Me2) = CC(C)(C)CC(=O)*; X3 = O=C1NC2CSC(CCCCC(=O)*)C2N1; X2 = O=C(CC1CCC2CCCC21)*; X4 = O=C(CC1CC2CCC1C2)*

What was measured:
[1] = target: Neurotensin receptor type 1 (Rattus norvegicus, UniProt P20789); assay: Binding affinity against rat neurotensin receptor.
[2] = tested on: Mus musculus; assay: Analgesic activity in fasted male mice in phenylquinone writhing assay 10 min after i.c.v. administration.; assay type: functional
[3] = tested on: Mus musculus; assay: Analgesic activity in fasted male mice in phenylquinone writhing assay 40 min after i.c.v. administration.; assay type: functional
[4] = tested on: Mus musculus; assay: Analgesic activity in fasted male mice in phenylquinone writhing assay 5 min after i.c.v. administration.; assay type: functional
[5] = tested on: Mus musculus; assay: Analgesic activity of i.v. administered compound in fasted male mice at 10 min. interval was determined using phenylquinone writhing assay; assay type: functional; details: iv
[6] = tested on: Mus musculus; assay: Analgesic activity of i.v. administered compound in fasted male mice at 5 min. interval was determined using phenylquinone writhing assay; assay type: functional; details: iv

Neurotensin receptor type 1, sequence (P20789 whole entry): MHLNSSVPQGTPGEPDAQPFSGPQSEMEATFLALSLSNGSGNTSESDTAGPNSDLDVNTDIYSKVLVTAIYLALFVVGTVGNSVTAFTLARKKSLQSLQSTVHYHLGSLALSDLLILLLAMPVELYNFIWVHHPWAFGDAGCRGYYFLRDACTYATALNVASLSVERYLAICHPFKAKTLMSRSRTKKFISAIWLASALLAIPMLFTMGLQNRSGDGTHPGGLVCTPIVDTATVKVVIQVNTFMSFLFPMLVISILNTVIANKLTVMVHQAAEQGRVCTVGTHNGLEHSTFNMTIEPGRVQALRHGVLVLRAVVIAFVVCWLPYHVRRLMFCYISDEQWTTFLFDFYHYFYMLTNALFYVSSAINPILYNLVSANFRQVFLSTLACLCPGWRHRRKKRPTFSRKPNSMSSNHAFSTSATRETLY

**Q.** How did the Ki [1] turn out when CC[C@H](C)[C@H](NC(=O)[C@H](Cc1ccc(O)cc1)NC(=O)[C@@H]1CCCN1C(=O)[C@H](CCCCN)NC(=O)C(F)(F)C(F)(F)C(F)(F)C(F)(F)C(F)(F)C(F)(F)C(F)(F)F)C(=O)N[C@@H](CC(C)C)C(=O)O (X1-KPYIL-OH) [listing 1 of 2 here] was run?
**A.** 2100 nM

**Q.** Which results are given for CC[C@H](C)[C@H](NC(=O)[C@H](Cc1ccc(O)cc1)NC(=O)[C@@H]1CCCN1C(=O)[C@H](CCCCN)NC(=O)C(F)(F)C(F)(F)C(F)(F)C(F)(F)C(F)(F)C(F)(F)C(F)(F)F)C(=O)N[C@@H](CC(C)C)C(=O)O (X1-KPYIL-OH) [listing 2 of 2 here]?
**A.** ED50 [2]: 3.7 ug mouse-1; ED50 [3]: 4.4 ug mouse-1; ED50 [4]: 2.2 ug mouse-1; ED50 [5]: 17 mg/kg; ED50 [6]: 32 mg/kg

**Q.** Which ED50 [2] does the source give for CC[C@H](C)[C@H](NC(=O)[C@H](Cc1ccc(O)cc1)NC(=O)[C@@H]1CCCN1C(=O)[C@H](CCCCN)NC(=O)CC1CCC2CCCC21)C(=O)N[C@@H](CC(C)C)C(=O)O (stereo partly specified) (X2-KPYIL-OH) here?
**A.** 0.41 ug mouse-1

**Q.** What about the ED50 [3] of the same compound?
**A.** 2.5 ug mouse-1

**Q.** And the ED50 [4]?
**A.** 0.1 ug mouse-1

**Q.** What about the ED50 [5] of the same compound?
**A.** 15 mg/kg

**Q.** And the ED50 [6]?
**A.** 12 mg/kg

**Q.** What about the Ki [1] of the same compound?
**A.** 540 nM

**Q.** For CC[C@H](C)[C@H](NC(=O)[C@H](Cc1ccc(O)cc1)NC(=O)[C@@H]1CCCN1C(=O)[C@H](CCCCN)NC(=O)CCCCC1SCC2NC(=O)NC21)C(=O)N[C@@H](CC(C)C)C(=O)O (stereo partly specified) (X3-KPYIL-OH) [listing 1 of 2 here], which Ki [1] is on record?
**A.** 290 nM

**Q.** CC[C@H](C)[C@H](NC(=O)[C@H](Cc1ccc(O)cc1)NC(=O)[C@@H]1CCCN1C(=O)[C@H](CCCCN)NC(=O)CCCCC1SCC2NC(=O)NC21)C(=O)N[C@@H](CC(C)C)C(=O)O (stereo partly specified) (X3-KPYIL-OH) [listing 2 of 2 here] was tested. Which ED50 [2] did it give?
**A.** 2 ug mouse-1

**Q.** And the ED50 [3]?
**A.** 8.3 ug mouse-1

**Q.** And the ED50 [4]?
**A.** 0.86 ug mouse-1

**Q.** And the ED50 [5]?
**A.** ≥ 81 mg/kg

**Q.** What about the ED50 [6] of the same compound?
**A.** > 81 mg/kg

**Q.** Which results are given for CC[C@H](C)[C@H](NC(=O)[C@H](Cc1ccc(O)cc1)NC(=O)[C@@H]1CCCN1C(=O)[C@H](CCCCN)NC(=O)CC1CC2CCC1C2)C(=O)N[C@@H](CC(C)C)C(=O)O (stereo partly specified) (X4-KPYIL-OH)?
**A.** ED50 [2]: 0.29 ug mouse-1; ED50 [3]: 2.7 ug mouse-1; ED50 [4]: 0.018 ug mouse-1; ED50 [5]: 19 mg/kg; ED50 [6]: 24 mg/kg; Ki [1]: 1000 nM

**Q.** How did the Ki [1] turn out when CC[C@H](C)[C@H](NC(=O)[C@H](Cc1ccc(O)cc1)NC(=O)[C@@H]1CCCN1C(=O)[C@H](CCCCN)NC(=O)c1ccc(-c2ccccc2)cc1)C(=O)N[C@@H](CC(C)C)C(=O)O ({Benzoyl(4-Ph)}-KPYIL-OH) [listing 1 of 2 here] was run?
**A.** 880 nM

**Q.** What does the source list for CC[C@H](C)[C@H](NC(=O)[C@H](Cc1ccc(O)cc1)NC(=O)[C@@H]1CCCN1C(=O)[C@H](CCCCN)NC(=O)c1ccc(-c2ccccc2)cc1)C(=O)N[C@@H](CC(C)C)C(=O)O ({Benzoyl(4-Ph)}-KPYIL-OH) [listing 2 of 2 here]?
**A.** ED50 [2]: 2.8 ug mouse-1; ED50 [3]: 50 ug mouse-1; ED50 [4]: 1.7 ug mouse-1; ED50 [5]: 13 mg/kg; ED50 [6]: < 27 mg/kg

**Q.** For CC[C@H](C)[C@H](NC(=O)[C@H](Cc1ccc(O)cc1)NC(=O)[C@@H]1CCCN1C(=O)[C@H](CCCCN)NC(=O)c1ccc(C(C)(C)C)cc1)C(=O)N[C@@H](CC(C)C)C(=O)O ({Benzoyl(4-tBu)}-KPYIL-OH) [listing 1 of 2 here], which Ki [1] is on record?
**A.** 220 nM

**Q.** What does the source list for CC[C@H](C)[C@H](NC(=O)[C@H](Cc1ccc(O)cc1)NC(=O)[C@@H]1CCCN1C(=O)[C@H](CCCCN)NC(=O)c1ccc(C(C)(C)C)cc1)C(=O)N[C@@H](CC(C)C)C(=O)O ({Benzoyl(4-tBu)}-KPYIL-OH) [listing 2 of 2 here]?
**A.** ED50 [2]: 0.088 ug mouse-1; ED50 [3]: 0.32 ug mouse-1; ED50 [4]: 0.075 ug mouse-1; ED50 [5]: 6.6 mg/kg; ED50 [6]: 12 mg/kg

**Q.** Which Ki [1] does the source give for CC[C@H](C)[C@H](NC(=O)[C@H](Cc1ccc(O)cc1)NC(=O)[C@@H]1CCCN1C(=O)[C@H](CCCCN)NC(=O)CC(C)(C)C)C(=O)N[C@@H](CC(C)C)C(=O)O ({Butanoyl(3,3-Me2)}-KPYIL-OH) [listing 1 of 2 here] here?
**A.** 680 nM

**Q.** For CC[C@H](C)[C@H](NC(=O)[C@H](Cc1ccc(O)cc1)NC(=O)[C@@H]1CCCN1C(=O)[C@H](CCCCN)NC(=O)CC(C)(C)C)C(=O)N[C@@H](CC(C)C)C(=O)O ({Butanoyl(3,3-Me2)}-KPYIL-OH) [listing 2 of 2 here], which ED50 [2] is on record?
**A.** 0.1 ug mouse-1

**Q.** And the ED50 [3]?
**A.** 1.2 ug mouse-1

**Q.** And the ED50 [4]?
**A.** 0.095 ug mouse-1

**Q.** And the ED50 [5]?
**A.** 4.9 mg/kg

**Q.** What about the ED50 [6] of the same compound?
**A.** 6.2 mg/kg

**Q.** For Ac-KPYIL-OH [listing 1 of 2 here], which Ki [1] is on record?
**A.** 2100 nM

**Q.** Which results are given for Ac-KPYIL-OH [listing 2 of 2 here]?
**A.** ED50 [2]: <50 ug mouse-1; ED50 [3]: <50 ug mouse-1; ED50 [4]: <50 ug mouse-1

**Q.** How did the ED50 [2] turn out when H-KPYIL-OH was run?
**A.** 10 ug mouse-1

**Q.** What about the ED50 [3] of the same compound?
**A.** 26 ug mouse-1

**Q.** And the ED50 [4]?
**A.** 8 ug mouse-1

**Q.** What about the ED50 [5] of the same compound?
**A.** > 81 mg/kg

**Q.** And the ED50 [6]?
**A.** > 81 mg/kg
